Assay results taken from ChEMBL document CHEMBL5252515, “Discovery of 6-Amino-2-{[(1S)-1-methylbutyl]oxy}-9-[5-(1-piperidinyl)pentyl]-7,9-dihydro-8H-purin-8-one (GSK2245035), a Highly Potent and Selective Intranasal Toll-Like Receptor 7 Agonist for the Treatment of Asthma” (J Med Chem, 2016).
In brackets after ≈: the same amount, converted by molar mass. Activity calls are given as the source filed them. No cut-off for these calls is given here.

Tests used:
[1] = target: T1, Toll-like receptor 7 (Homo sapiens, UniProt Q9NYK1); assay: Agonist activity at TLR7 in human U2OS cells; format: cell-based
T1 sequence (Q9NYK1 whole entry): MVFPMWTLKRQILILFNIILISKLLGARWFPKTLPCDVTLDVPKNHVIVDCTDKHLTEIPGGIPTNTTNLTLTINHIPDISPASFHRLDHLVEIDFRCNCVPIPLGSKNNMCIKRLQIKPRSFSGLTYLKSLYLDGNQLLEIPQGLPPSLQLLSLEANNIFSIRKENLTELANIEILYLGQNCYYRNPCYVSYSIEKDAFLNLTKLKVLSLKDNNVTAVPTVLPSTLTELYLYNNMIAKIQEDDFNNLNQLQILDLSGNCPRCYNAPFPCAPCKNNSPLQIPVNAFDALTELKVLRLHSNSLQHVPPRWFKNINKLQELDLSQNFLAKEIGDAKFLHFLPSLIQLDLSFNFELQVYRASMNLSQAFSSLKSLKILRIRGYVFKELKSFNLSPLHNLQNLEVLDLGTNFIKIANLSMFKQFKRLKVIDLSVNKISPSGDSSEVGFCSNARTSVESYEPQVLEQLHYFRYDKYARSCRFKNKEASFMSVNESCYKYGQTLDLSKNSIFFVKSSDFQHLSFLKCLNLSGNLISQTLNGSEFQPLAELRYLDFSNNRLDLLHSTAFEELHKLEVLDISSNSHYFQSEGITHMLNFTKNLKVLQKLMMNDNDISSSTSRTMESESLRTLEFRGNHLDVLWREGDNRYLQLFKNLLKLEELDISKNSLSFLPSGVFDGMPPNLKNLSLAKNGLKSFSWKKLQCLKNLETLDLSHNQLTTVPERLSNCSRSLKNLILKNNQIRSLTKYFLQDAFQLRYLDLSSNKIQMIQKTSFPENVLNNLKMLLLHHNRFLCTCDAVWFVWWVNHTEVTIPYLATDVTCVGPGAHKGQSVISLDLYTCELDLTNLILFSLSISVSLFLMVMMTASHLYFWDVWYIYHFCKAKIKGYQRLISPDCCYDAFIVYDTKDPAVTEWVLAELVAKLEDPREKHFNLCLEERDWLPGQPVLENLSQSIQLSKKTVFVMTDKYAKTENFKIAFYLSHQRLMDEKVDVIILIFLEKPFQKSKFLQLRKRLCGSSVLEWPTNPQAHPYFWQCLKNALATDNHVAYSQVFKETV

[2] = system: Cynomolgus monkey; assay: Increase in IP-10 level in cynomolgus monkey serum at 30 ng/kg, administered intranasally after 6 hrs; format: functional, organism-based; settings: Macaca fascicularis
[3] = target: T2, Toll-like receptor 7 (Macaca fascicularis) (UniProt B3Y652); assay: In vivo target occupancy at TLR7 in cynomolgus monkey assessed as fold increase in CXCL10 mRNA expression in nasal scrape at 30 ng/kg administered intranasally incubated for 24 hrs by TaqMan analysis (reference value: 1.6); format: functional
T2 sequence (whole entry): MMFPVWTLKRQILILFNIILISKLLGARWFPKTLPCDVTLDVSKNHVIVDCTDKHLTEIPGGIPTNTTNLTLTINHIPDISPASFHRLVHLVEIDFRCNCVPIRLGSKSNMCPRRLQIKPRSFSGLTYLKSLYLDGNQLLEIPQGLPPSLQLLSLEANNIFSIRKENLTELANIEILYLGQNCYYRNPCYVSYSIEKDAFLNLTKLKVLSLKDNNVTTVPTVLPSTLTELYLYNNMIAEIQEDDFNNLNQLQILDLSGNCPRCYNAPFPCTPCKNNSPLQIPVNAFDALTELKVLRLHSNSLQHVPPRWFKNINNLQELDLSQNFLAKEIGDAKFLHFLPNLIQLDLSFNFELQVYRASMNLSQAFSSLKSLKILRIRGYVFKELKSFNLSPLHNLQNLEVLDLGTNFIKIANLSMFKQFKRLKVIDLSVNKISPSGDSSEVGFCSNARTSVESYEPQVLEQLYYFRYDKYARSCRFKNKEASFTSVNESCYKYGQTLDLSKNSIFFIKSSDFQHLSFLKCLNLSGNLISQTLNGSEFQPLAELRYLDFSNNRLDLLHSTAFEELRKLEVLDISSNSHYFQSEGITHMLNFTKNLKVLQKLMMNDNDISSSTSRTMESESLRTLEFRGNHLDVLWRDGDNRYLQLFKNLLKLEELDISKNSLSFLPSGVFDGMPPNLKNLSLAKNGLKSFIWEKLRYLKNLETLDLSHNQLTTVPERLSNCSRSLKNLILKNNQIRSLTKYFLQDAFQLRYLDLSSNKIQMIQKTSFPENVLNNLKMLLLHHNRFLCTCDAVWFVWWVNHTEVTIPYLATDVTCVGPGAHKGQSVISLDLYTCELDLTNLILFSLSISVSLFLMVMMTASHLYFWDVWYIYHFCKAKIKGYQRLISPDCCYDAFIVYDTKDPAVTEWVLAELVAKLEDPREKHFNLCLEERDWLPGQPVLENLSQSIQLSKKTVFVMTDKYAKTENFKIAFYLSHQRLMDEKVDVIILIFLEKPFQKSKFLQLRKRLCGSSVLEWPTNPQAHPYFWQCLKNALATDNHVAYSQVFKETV

[4] = target: T2, Toll-like receptor 7 (Macaca fascicularis); assay: In vivo target occupancy at TLR7 in cynomolgus monkey assessed as fold increase in OAS1 mRNA expression in nasal scrape at 30 ng/kg administered intranasally incubated for 24 hrs by TaqMan analysis (reference value: 1.2); format: functional
[5] = Systemic clearance in rat; format: ADME; settings: in vivo
[6] = Toxicity in male rat assessed as NOAEL after 14 days; settings: in vivo, time 14 day
[7] = Ocular toxicity in monkey at 10 ug/ml; design: species or system Macaca mulatta; settings: rhesus monkey, in vivo; dose 10 µg/ml
[8] = Solubility of the compound at pH-7; format: physicochemical
[9] = target: Toll-like receptor 3 (Homo sapiens) (UniProt O15455); assay: Agonist activity at TLR3 (unknown origin) expressed in HEK cells upto 50 uM by luciferase reporter assay; format: cell-based
Chain of Toll-like receptor 3 (Homo sapiens) (O15455 whole entry): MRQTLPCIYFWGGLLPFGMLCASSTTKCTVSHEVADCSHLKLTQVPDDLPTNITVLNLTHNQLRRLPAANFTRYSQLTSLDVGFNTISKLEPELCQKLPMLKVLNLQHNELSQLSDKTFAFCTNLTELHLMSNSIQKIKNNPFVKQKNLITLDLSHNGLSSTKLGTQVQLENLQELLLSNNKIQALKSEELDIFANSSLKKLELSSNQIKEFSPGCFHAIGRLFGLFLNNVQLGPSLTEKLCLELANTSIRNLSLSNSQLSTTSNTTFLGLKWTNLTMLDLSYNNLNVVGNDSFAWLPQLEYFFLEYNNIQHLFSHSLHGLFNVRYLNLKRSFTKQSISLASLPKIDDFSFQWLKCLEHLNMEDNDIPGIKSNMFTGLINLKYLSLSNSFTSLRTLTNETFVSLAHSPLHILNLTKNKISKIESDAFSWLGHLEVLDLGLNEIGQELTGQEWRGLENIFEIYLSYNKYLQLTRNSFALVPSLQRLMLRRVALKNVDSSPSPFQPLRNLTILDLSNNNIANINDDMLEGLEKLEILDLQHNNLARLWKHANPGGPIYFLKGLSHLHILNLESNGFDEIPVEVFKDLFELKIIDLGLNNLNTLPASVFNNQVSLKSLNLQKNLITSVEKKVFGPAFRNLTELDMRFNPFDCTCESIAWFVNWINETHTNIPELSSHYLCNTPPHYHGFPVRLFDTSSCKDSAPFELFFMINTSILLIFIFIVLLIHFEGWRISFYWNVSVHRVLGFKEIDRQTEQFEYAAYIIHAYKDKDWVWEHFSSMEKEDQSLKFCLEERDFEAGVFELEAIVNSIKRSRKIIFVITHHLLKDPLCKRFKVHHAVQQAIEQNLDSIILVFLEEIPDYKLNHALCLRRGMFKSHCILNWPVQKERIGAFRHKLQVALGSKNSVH

CCC[C@H](C)Oc1nc(N)c2[nH]c(=O)n(CCCCCN3CCCCC3)c2n1 [GSK-2245035]
EC50 [1]: 2000 nM | Activity [2]: Active | fold change (FC) [3]: 638 | fold change (FC) [4]: 53.7 | clearance [5]: 96 mL/min/kg | NOAEL at 336 h [6]: 0.453 mg/kg/day | Activity [7]: Non-Toxic | solubility [8]: 11 mg/mL (≈ 28.2 mM) | Activity [9]: inactive
